PubChem BioAssay AID2060904 (Molecular Pharmacology Branch, DTP, NCI, 2025)
pIC50: −log10 of the molar value.

Test system: 349418-098-R-PDC complex spheroid viability
Assay: Anticancer human tumor 349418-098-R-PDC patient-derived lung adenocarcinoma cell line growth inhibition [RAS]
Settings: for pIC50: curve of first compound; for viability, T/C: stronger effect = lower value
Text: RAS pathway inhibitors in Combinations in Complex Spheroids
A high-throughput screen of multi-cell type tumor spheroids was designed to identify active combinations of RAS pathway inhibitors and targeted small molecules. Complex spheroids include a stromal component modeled by human endothelial cells (HUVEC) and fibroblasts modeled by human mesenchymal stem cells (MSCs). The concentration ranges selected for each drug and investigational agent were based upon clinically achievable concentrations if the clinical Cmax of the agent was known.
Compounds. The drugs and investigational agents: abemaciclib (NSC768073), cobimetinib (NSC768068), divarasib (GDC6063, NSC841802), docetaxel (NSC628503), GDC-1971 (RLY-1971, NSC841576), gemcitabine (NSC613327), inavolisib (NSC800729), ipatasertib (NSC767898), KB-0742 (NSC834161), MRTX-1133 (NSC836407), osimertinib (NSC779217), RMC-4630 (NSC839698), RMC-6236 (NSC851965), RMC-6291 (NSC852671), Ro-3306 (NSC812927), sapanisertib (NSC764658), SN-38 (NSC673596), staurosporine (NSC755774), SY5609 (NSC837396), and tovorafenib (DAY101, NSC766906), were obtained from the National Cancer Institute (NCI) Developmental Therapeutics Program Chemical Repository. The FDA-approved anticancer drug set is available from the NCI Developmental Therapeutics Program. […] The stock solutions were prepared in dimethyl sulfoxide (DMSO, Sigma-Aldrich, St. Louis, MO, cat. D2650) at 800-fold the tested concentration and stored at -70 degrees C prior to their use. All drugs and investigational agents were tested over a range starting from a high concentration at or near the clinical Cmax and decreasing in half-log increments. If the clinical Cmax for an agent had not been determined, the highest concentration tested was 10 microM.
Cell Culture. All cells were maintained in an incubator at 37 degrees C and 5% CO2 with 95% humidity. The PDC lines were cultured according to standard operating procedures established by the NCI PDMR. All PDCs were thawed and cultured in Matrigel-coated flasks prepared with a working solution of 1X Ham's F-12 nutrient mix, without supplementation (Invitrogen, Waltham, MA, cat. 11765054), 100 U/mL penicillin-streptomycin (Invitrogen, cat. 15140122), and 2.5% Matrigel (Corning Inc., Corning, NY, cat. 354248) for the first three passages. The 362531-283-R-J2-PDC and 782815-120-R-J1-PDC lines were cultured in 6C/Colon 1B media, which includes advanced DMEM/F-12 (Thermo Fisher Scientific, cat. 12634028), 10 mM HEPES (Thermo Fisher Scientific, cat. 15630080), 1X GlutaMAX supplement (Thermo Fisher Scientific, cat. 35050061), 0.1 mg/mL primocin (InvivoGen, San Diego, CA, cat. ant-pm-2), 10% defined fetal bovine serum, heat inactivated (HyClone Laboratories Inc., Logan, UT, cat. SH30070.03HI), 50% L-WRN conditioned media (ATCC, cat. CRL-3276), 1.25 mM N-Acetyl-L-cysteine (Sigma-Aldrich, cat. A9165), 10 mM nicotinamide (Sigma-Aldrich, cat. N0636), 1X B-27 supplement (Thermo Fisher Scientific, cat. 17504044), 1X N-2 supplement (Thermo Fisher Scientific, cat. 17502048), 50 ng/mL human EGF (Thermo Fisher Scientific, cat. PHG0311), and 10 microM Y-27632 dihydrochloride (Tocris Bioscience, cat. 1254). The K12877-001-R-J1-PDC line was cultured in 6I media, which includes all 6C/Colon 1B media plus 10 ng/mL human FGF-10 (PeproTech, cat. 100-26), 1 ng/mL human FGF-2 (PeproTech, cat. 100-18B), 1 µM prostaglandin E2 (Tocris Bioscience, cat. 2296), […] hydrocortisone (Sigma-Aldrich, cat. H4001), and […] bovine insulin (Sigma-Aldrich, cat. I6634). The K86415-001-R-J1-PDC line was cultured in 6D media, which includes all 6C/Colon 1B media components minus the L-WRN conditioned media. The 485176-168-R4-J1-PDC was cultured in PANC media, which includes all 6C/Colon 1B media plus 100 ng/mL human FGF-10 (PeproTech, cat. 100-26), 500 nM SB-431542 (Selleckchem, cat. S1067), and 10 nM gastrin (Tocris Bioscience, cat. 3006). […]
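Further: spheroids exposed to compound for seven days before viability readout.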

CCc1c2c(nc3ccc(O)cc13)-c1cc3c(c(=O)n1C2)COC(=O)[C@]3(O)CC + C=CC(=O)N1CCN(c2nc(OCC3CCCN3C)nc3c(F)c(-c4nc(N)cc(C)c4C(F)(F)F)c(Cl)cc23)C(C)C1
pIC50 (second compound 0.00316 µM): 9.02 | pIC50 (second compound 0.01 µM): 8.74 | pIC50 (second compound 0.0316 µM): 8.76 | pIC50 (second compound 0.1 µM): 9.01 | pIC50 (second compound 0.316 µM): 8.92 | pIC50 (second compound 1 µM): 8.77 | viability, T/C (second compound 0.00316 µM, first compound 0.000949 µM): 50% | viability, T/C (second compound 0.00316 µM, first compound 0.003 µM): 28.8% | viability, T/C (second compound 0.00316 µM, first compound 0.00949 µM): 6.39% | viability, T/C (second compound 0.00316 µM, first compound 0.03 µM): 4.43% | viability, T/C (second compound 0.00316 µM, first compound 0.0949 µM): 3.41% | viability, T/C (second compound 0.00316 µM, first compound 0.3 µM): 2.43% | viability, T/C (second compound 0.01 µM, first compound 0.000949 µM): 69.1% | viability, T/C (second compound 0.01 µM, first compound 0.003 µM): 35% | viability, T/C (second compound 0.01 µM, first compound 0.00949 µM): 7.67% | viability, T/C (second compound 0.01 µM, first compound 0.03 µM): 4.23% | viability, T/C (second compound 0.01 µM, first compound 0.0949 µM): 2.64% | viability, T/C (second compound 0.01 µM, first compound 0.3 µM): 1.87% | viability, T/C (second compound 0.0316 µM, first compound 0.000949 µM): 70.9% | viability, T/C (second compound 0.0316 µM, first compound 0.003 µM): 31.7% | viability, T/C (second compound 0.0316 µM, first compound 0.00949 µM): 11.7% | viability, T/C (second compound 0.0316 µM, first compound 0.03 µM): 4.13% | viability, T/C (second compound 0.0316 µM, first compound 0.0949 µM): 2.62% | viability, T/C (second compound 0.0316 µM, first compound 0.3 µM): 2.07% | viability, T/C (second compound 0.1 µM, first compound 0.000949 µM): 50.8% | viability, T/C (second compound 0.1 µM, first compound 0.003 µM): 27.1% | viability, T/C (second compound 0.1 µM, first compound 0.00949 µM): 10.5% | viability, T/C (second compound 0.1 µM, first compound 0.03 µM): 4.6% | viability, T/C (second compound 0.1 µM, first compound 0.0949 µM): 3.02% | viability, T/C (second compound 0.1 µM, first compound 0.3 µM): 2.05% | viability, T/C (second compound 0.316 µM, first compound 0.000949 µM): 57.2% | viability, T/C (second compound 0.316 µM, first compound 0.003 µM): 21.9% | viability, T/C (second compound 0.316 µM, first compound 0.00949 µM): 7.59% | viability, T/C (second compound 0.316 µM, first compound 0.03 µM): 4.71% | viability, T/C (second compound 0.316 µM, first compound 0.0949 µM): 2.92% | viability, T/C (second compound 0.316 µM, first compound 0.3 µM): 1.94% | viability, T/C (second compound 1 µM, first compound 0.000949 µM): 73.1% | viability, T/C (second compound 1 µM, first compound 0.003 µM): 26.9% | viability, T/C (second compound 1 µM, first compound 0.00949 µM): 9.24% | viability, T/C (second compound 1 µM, first compound 0.03 µM): 5.15% | viability, T/C (second compound 1 µM, first compound 0.0949 µM): 3.55% | viability, T/C (second compound 1 µM, first compound 0.3 µM): 2.46%

CC1(O)CCCC1n1c(=O)c(C(F)F)cc2cnc(NC3CCN(S(C)(=O)=O)CC3)nc21 (stereo unspecified) + C=CC(=O)N1CCN(c2nc(OCC3CCCN3C)nc3c(F)c(-c4nc(N)cc(C)c4C(F)(F)F)c(Cl)cc23)C(C)C1
pIC50 (second compound 0.00316 µM): 7.11 | pIC50 (second compound 0.01 µM): 6.99 | pIC50 (second compound 0.0316 µM): 7.07 | pIC50 (second compound 0.1 µM): 7.21 | pIC50 (second compound 0.316 µM): 7.42 | pIC50 (second compound 1 µM): 7.27 | viability, T/C (second compound 0.00316 µM, first compound 0.0316 µM): 75.1% | viability, T/C (second compound 0.00316 µM, first compound 0.1 µM): 43.2% | viability, T/C (second compound 0.00316 µM, first compound 0.316 µM): 22.5% | viability, T/C (second compound 0.00316 µM, first compound 1 µM): 17% | viability, T/C (second compound 0.00316 µM, first compound 3.16 µM): 21.8% | viability, T/C (second compound 0.00316 µM, first compound 10 µM): 4.51% | viability, T/C (second compound 0.01 µM, first compound 0.0316 µM): 59.5% | viability, T/C (second compound 0.01 µM, first compound 0.1 µM): 52.6% | viability, T/C (second compound 0.01 µM, first compound 0.316 µM): 33.2% | viability, T/C (second compound 0.01 µM, first compound 1 µM): 17.8% | viability, T/C (second compound 0.01 µM, first compound 3.16 µM): 15.8% | viability, T/C (second compound 0.01 µM, first compound 10 µM): 3.59% | viability, T/C (second compound 0.0316 µM, first compound 0.0316 µM): 74.9% | viability, T/C (second compound 0.0316 µM, first compound 0.1 µM): 44.4% | viability, T/C (second compound 0.0316 µM, first compound 0.316 µM): 27.2% | viability, T/C (second compound 0.0316 µM, first compound 1 µM): 19.8% | viability, T/C (second compound 0.0316 µM, first compound 3.16 µM): 24.7% | viability, T/C (second compound 0.0316 µM, first compound 10 µM): 3.03% | viability, T/C (second compound 0.1 µM, first compound 0.0316 µM): 64.8% | viability, T/C (second compound 0.1 µM, first compound 0.1 µM): 41% | viability, T/C (second compound 0.1 µM, first compound 0.316 µM): 18.2% | viability, T/C (second compound 0.1 µM, first compound 1 µM): 25.8% | viability, T/C (second compound 0.1 µM, first compound 3.16 µM): 24.2% | viability, T/C (second compound 0.1 µM, first compound 10 µM): 2.89% | viability, T/C (second compound 0.316 µM, first compound 0.0316 µM): 52.6% | viability, T/C (second compound 0.316 µM, first compound 0.1 µM): 43.1% | viability, T/C (second compound 0.316 µM, first compound 0.316 µM): 20.6% | viability, T/C (second compound 0.316 µM, first compound 1 µM): 24.3% | viability, T/C (second compound 0.316 µM, first compound 3.16 µM): 18.1% | viability, T/C (second compound 0.316 µM, first compound 10 µM): 3.81% | viability, T/C (second compound 1 µM, first compound 0.0316 µM): 60.8% | viability, T/C (second compound 1 µM, first compound 0.1 µM): 36% | viability, T/C (second compound 1 µM, first compound 0.316 µM): 26.4% | viability, T/C (second compound 1 µM, first compound 1 µM): 25.4% | viability, T/C (second compound 1 µM, first compound 3.16 µM): 22.6% | viability, T/C (second compound 1 µM, first compound 10 µM): 4.16%

CCc1c2c(nc3ccc(O)cc13)-c1cc3c(c(=O)n1C2)COC(=O)[C@]3(O)CC
viability, T/C (compound 0.000949 µM): 82% [middle of 4 runs] | viability, T/C (compound 0.003 µM): 39.4% [middle of 4 runs] | viability, T/C (compound 0.00949 µM): 17.2% [middle of 4 runs] | viability, T/C (compound 0.03 µM): 6.46% [middle of 4 runs] | viability, T/C (compound 0.0949 µM): 3.27% [middle of 4 runs] | viability, T/C (compound 0.3 µM): 2.43% [middle of 4 runs] | IC50 (curve of compound): 2.32 nM [middle of 4 runs]
